Measured values: PMC11062899, “De novo development of small cyclic peptides that are orally bioavailable” (Nature Chemical Biology, 2023)

Biological target: human α-thrombin (Homo sapiens, UniProt P00734)
Test: Sub-library screen for active and permeable cyclic peptides (PAMPA plus thrombin inhibition)
Type: biochemical
Details: crude, slopes normalized to DMSO; for Residual thrombin activity: Top sample: PAMPA acceptor well after 14 h, 5 μM donor; for Residual thrombin activity: Equilibrated sample: donor sample diluted to theoretical equilibrium (1 μM in assay)
Procedure: Linear dithiol peptides were synthesized in fritted 5-ml polypropylene syringes on a MultiPep RSi parallel peptide synthesizer (Intavis) by standard Fmoc-based solid-phase peptide synthesis on cysteamine 2-chlorotrityl resin (Sigma-Aldrich, 8.56000, 1.63 mmol g^−1 loading, 25 μmol scale) as described above with small changes. Amino acids (65 μmol, 2.6 eq.) were activated with HATU (63 μmol, 2.5 eq.) and NMM (145 μmol, 5.8 eq.) in 280 μl of DMF and 5 μl of NMP and let to react with the resin (25 μmol, 1 eq.) for 45 min. Couplings were performed twice for each amino acid. Resin was washed once with 800 μl of DMF, and unreacted amines were capped with 5% acetic anhydride and 6% 2,6-lutidine in 400 μl of DMF for 5 min. The resin was washed six times with 600 μl of DMF, and Fmoc protecting groups were removed by incubating the resin twice with 450 μl of a 20% piperidine solution in DMF for 5 min. The resin was washed six times with 600 μl of DMF before proceeding to the next coupling cycle. After completing the last coupling cycle, the resin was washed six times with […] of DCM. Peptide cleavage and ether precipitation were carried out as described above. After quantification with Ellman’s reagent, 1 μmol of each peptide was transferred in seven replicates to new Nunc 96-well DeepWell polypropylene plates and lyophilized. Peptides were cyclized as described above to afford 20 mM cyclic peptide stock solutions in DMSO containing 160 mM HEPES sodium salt. The amine on cyclic peptides was acylated with 5-chlorothiophene-2-carboxylic acid as follows. A 160 mM solution in 5-chlorothiophene-2-carboxylic acid was prepared in DMSO containing 160 mM HEPES sodium salt, and the acid was activated by mixing in equal volumes with a 160 mM HSTU solution in DMSO. Then, 10 μl of the activated carboxylic acid solutions and the cyclic peptide stocks were placed in Echo Qualified 384-well Low Dead Volume microplates (Labcyte), and 400 nl of cyclic peptide and 400 nl of HSTU-activated 5-chlorothiophene-2-carboxylic acid were transferred combinatorially to 384-well microplates (Greiner, 781076) using the Echo 650 acoustic liquid handler (Labcyte). Plates were centrifuged at 2,000 g for 2 min, and the reaction was allowed to proceed at room temperature for 8 h before addition of 39.2 μl of DMSO with a CERTUS FLEX liquid dispenser (Gyger). A volume of 25 μl of the resulting DMSO solutions was diluted with PBS buffer at pH 7.4 containing 5% DMSO in Nunc 96-well DeepWell polypropylene plates to afford 5 μM solutions of the acylated peptides.
The PAMPA plates were covered with a lid to avoid evaporation and incubated for 14 h at room temperature. Additionally, a diluted donor sample was prepared at the concentration representing theoretical maximum permeability (3 μM). Thereby, 30 μl of the donor sample before incubation was diluted with 20 μl of PBS buffer at pH 7.4 containing 5% DMSO. Volumes of 16 μl of each acceptor well and the diluted donor samples were transferred to a 384-well microplate (Greiner, 781076), and thrombin activity was measured as follows. Human α-thrombin (16 μl, 6 nM, Molecular Innovations) in assay buffer was dispensed into each well using a CERTUS FLEX liquid dispenser (Gyger), and plates were incubated at room temperature for 10 min. Then, 16 μl of a 150 μM fluorogenic thrombin substrate solution (Z-Gly-Gly-Arg-AMC, Bachem) in assay buffer containing 1% DMSO was added to each well, and thrombin inhibition was determined by measuring the fluorescent gain over time. Fluorescence intensity was measured on a Tecan Infinite M200 Pro microplate reader for 30 min at 25 °C with a fluorescent readout every 3 min (excitation: 360 nm, emission: 465 nm). Protease inhibition was calculated by comparing the enzymatic activity to a control without cyclic peptide.

Compound	Residual thrombin activity: Top sample	Residual thrombin activity: Equilibrated sample
Cc1cccc(C[C@@H]2NC(=O)[C@@H](NC(=O)c3ccc(Cl)s3)CCSCCS(=O)(=O)CCSCCNC(=O)C[C@H]3CCCN3C2=O)c1 [C2-X37-L2]	97.6	73.7
O=C1C[C@H]2CCCN2C(=O)[C@@H](Cc2ccccc2)NC(=O)[C@@H](NC(=O)c2ccc(Cl)s2)CCSCc2cccc(n2)CSCCN1 [C2-X31-L1]	93.0	90.7
O=C1C[C@H]2CCCN2C(=O)[C@H](Cc2ccc(Cl)cc2)NC(=O)[C@@H](NC(=O)c2ccc(Cl)s2)CSCc2ccccc2CSCCN1 [C1-X34-L6]	93.0	92.0
O=C1C[C@H]2CCCN2C(=O)[C@H](Cc2ccc(C(F)(F)F)cc2)NC(=O)[C@@H](NC(=O)c2ccc(Cl)s2)CCCSCc2ccccc2CSCCN1 [C3-X36-L6]	96.6	97.7
O=C1C[C@H]2CCCN2C(=O)[C@@H](Cc2ccccc2)NC(=O)[C@@H](NC(=O)c2ccc(Cl)s2)CSCc2cccc(c2)CSCCN1 [C1-X31-L5]	100.5	95.5
O=C1C[C@H]2CCCN2C(=O)[C@H](Cc2ccc(C(F)(F)F)cc2)NC(=O)[C@@H](NC(=O)c2ccc(Cl)s2)CCCSCc2cccc(c2)CSCCN1 [C3-X36-L5]	105.6	108.0
Cc1cccc(C[C@@H]2NC(=O)[C@@H](NC(=O)c3ccc(Cl)s3)CSCc3cccc(c3)CSCCNC(=O)C[C@H]3CCCN3C2=O)c1 [C1-X37-L5]	100.9	88.0
O=C1C[C@H]2CCCN2C(=O)[C@H](Cc2ccccc2)NC(=O)[C@@H](NC(=O)c2ccc(Cl)s2)CCSCc2cccc(c2)CSCCN1 [C2-X5-L5]	90.5	54.8
Cc1cccc(C[C@@H]2NC(=O)[C@@H](NC(=O)c3ccc(Cl)s3)CCCSCc3cccc(c3)CSCCNC(=O)C[C@H]3CCCN3C2=O)c1 [C3-X37-L5]	100.9	83.4
O=C1C[C@H]2CCCN2C(=O)[C@H](Cc2ccccc2)NC(=O)[C@@H](NC(=O)c2ccc(Cl)s2)CCSC/C=C/CSCCN1 [C2-X5-L4]	61.9	33.0
O=C1C[C@H]2CCCN2C(=O)[C@@H](Cc2ccccc2)NC(=O)[C@@H](NC(=O)c2ccc(Cl)s2)CSCc2ccccc2CSCCN1 [C1-X31-L6]	88.4	91.2
O=C1C[C@H]2CCCN2C(=O)[C@@H](Cc2ccccc2)NC(=O)[C@@H](NC(=O)c2ccc(Cl)s2)CCCSCc2ccc(cc2)CSCCN1 [C3-X31-L3]	99.4	96.8
O=C1C[C@H]2CCCN2C(=O)[C@H](Cc2ccccc2)NC(=O)[C@@H](NC(=O)c2ccc(Cl)s2)CCSCc2ccc(cc2)CSCCN1 [C2-X5-L3]	86.6	59.6
CN1C(=O)[C@@H](NC(=O)c2ccc(Cl)s2)CCCSCc2cccc(c2)CSCCNC(=O)C[C@H]2CCCN2C(=O)[C@@H]1Cc1ccccc1 [C3-X32-L5]	103.6	103.6
O=C1C[C@H]2CCCN2C(=O)[C@H](Cc2ccccc2)NC(=O)[C@@H](NC(=O)c2ccc(Cl)s2)CSCc2ccccc2CSCCN1 [C1-X5-L6]	82.2	60.8
Cc1cccc(C[C@@H]2NC(=O)[C@@H](NC(=O)c3ccc(Cl)s3)CSCc3ccccc3CSCCNC(=O)C[C@H]3CCCN3C2=O)c1 [C1-X37-L6]	93.2	84.4

Compound	Residual thrombin activity: Top sample	Residual thrombin activity: Equilibrated sample
Cc1cccc(C[C@@H]2NC(=O)[C@@H](NC(=O)c3ccc(Cl)s3)CSCc3cccc(n3)CSCCNC(=O)C[C@H]3CCCN3C2=O)c1 [C1-X37-L1]	86.5	84.1
O=C1C[C@H]2CCCN2C(=O)[C@H](Cc2ccc(C(F)(F)F)cc2)NC(=O)[C@@H](NC(=O)c2ccc(Cl)s2)CCSCc2ccc(cc2)CSCCN1 [C2-X36-L3]	95.8	101.3
O=C1C[C@H]2CCCN2C(=O)[C@H](Cc2ccccc2)NC(=O)[C@@H](NC(=O)c2ccc(Cl)s2)CCSCc2cccc(n2)CSCCN1 [C2-X5-L1]	56.1	37.8
COc1ccc(C[C@@H]2NC(=O)[C@@H](NC(=O)c3ccc(Cl)s3)CCSC/C=C/CSCCNC(=O)C[C@H]3CCCN3C2=O)cc1 [C2-X33-L4]	100.6	93.7
CN1C(=O)[C@@H](NC(=O)c2ccc(Cl)s2)CCSCc2cccc(c2)CSCCNC(=O)C[C@H]2CCCN2C(=O)[C@@H]1Cc1ccccc1 [C2-X32-L5]	104.7	100.8
N#Cc1ccc(C[C@@H]2NC(=O)[C@@H](NC(=O)c3ccc(Cl)s3)CCSC/C=C/CSCCNC(=O)C[C@H]3CCCN3C2=O)cc1 [C2-X35-L4]	100.5	100.3
O=C1CSCCNC(=O)C[C@H]2CCCN2C(=O)[C@@H](Cc2ccccc2)NC(=O)[C@@H](NC(=O)c2ccc(Cl)s2)CCSC1 [C2-X31-L7]	102.6	101.7
O=C1C[C@H]2CCCN2C(=O)[C@H](Cc2ccc(Cl)cc2)NC(=O)[C@@H](NC(=O)c2ccc(Cl)s2)CCCSCCS(=O)(=O)CCSCCN1 [C3-X34-L2]	98.4	94.5
O=C1C[C@H]2CCCN2C(=O)[C@H](Cc2ccccc2)NC(=O)[C@@H](NC(=O)c2ccc(Cl)s2)CCCSCc2cccc(n2)CSCCN1 [C3-X5-L1]	64.7	75.1
O=C1C[C@H]2CCCN2C(=O)[C@H](Cc2ccc(Cl)cc2)NC(=O)[C@@H](NC(=O)c2ccc(Cl)s2)CCSCc2cccc(c2)CSCCN1 [C2-X34-L5]	106.3	106.4
O=C1C[C@H]2CCCN2C(=O)[C@@H](Cc2ccccc2)NC(=O)[C@@H](NC(=O)c2ccc(Cl)s2)CCSCc2ccc(cc2)CSCCN1 [C2-X31-L3]	96.0	100.5
N#Cc1ccc(C[C@@H]2NC(=O)[C@@H](NC(=O)c3ccc(Cl)s3)CSCc3cccc(n3)CSCCNC(=O)C[C@H]3CCCN3C2=O)cc1 [C1-X35-L1]	91.5	92.1
N#Cc1ccc(C[C@@H]2NC(=O)[C@@H](NC(=O)c3ccc(Cl)s3)CSCc3cccc(c3)CSCCNC(=O)C[C@H]3CCCN3C2=O)cc1 [C1-X35-L5]	102.4	97.2
O=C1C[C@H]2CCCN2C(=O)[C@H](Cc2ccccc2)NC(=O)[C@@H](NC(=O)c2ccc(Cl)s2)CCSCCS(=O)(=O)CCSCCN1 [C2-X5-L2]	89.4	25.8
O=C1C[C@H]2CCCN2C(=O)[C@H](Cc2ccc(C(F)(F)F)cc2)NC(=O)[C@@H](NC(=O)c2ccc(Cl)s2)CSCc2cccc(c2)CSCCN1 [C1-X36-L5]	101.6	104.5
